{
  "source": "patent US20260207626A1",
  "about": "“SYNTHETIC TRITERPENOIDS AND COMPOSITIONS THEREOF IN WEIGHT MANAGEMENT, SKELETAL MUSCLE FUNCTION, AND APPETITE SUPPRESSION” (The Board of Regents of the University of Texas System, priority 2022, published 2026)",
  "key": {"GLUT4": {"tested_on": "GLUT4", "assay": "Colorimetric assay of cell surface GLUT4 in L6GLUT4myc myotubes (preliminary data)", "type": "cell-based, rat", "settings": "FIG. 30", "procedure": "Is CDDO-EA-mediated GLUT4 translocation dependent on AMPK activation? The catalytic subunit alpha-1 (α1) of AMPK will be KD by siRNA. Cells will be treated with CDDO-EA (500 nM, 1 hour), insulin ([…] for 15 min), or insulin and CDDO-EA to determine if there is a synergistic effect on GLUT4 translocation. Also, cells will be treated with the AMPK activator, 5-aminoimidazole-4-carboxamide ribonucleoside (AICAR, 1 mM, 40 minutes), as a positive control. We will use a colorimetric assay to quantitatively measure the levels of cell surface GLUT4 in 3T3-L1 adipocytes and L6GLUT4myc myotubes^37. […] GLUT4 translocation will be detected via immunofluorescence. Subcellular protein fractionation will be conducted to detect GLUT4 in the sarcolemma for myotubes and plasma membrane for adipocytes and GLUT2 in the plasma membrane of hepatocytes via Western blotting. GLUT2 will be measured in hepatocytes because GLUT2 is the most abundant glucose transporter in hepatocytes^38. To measure glucose uptake, a non-radioactive, plate-based bioluminescent assay (Glucose Uptake-Glo, Promega) will be performed. Using Glucose Uptake-Glo, insulin induces glucose uptake in L6GLUT4my myotubes. Phosphorylation of AMPK at Thr^172 and phosphorylation of ACC at Ser^79 indicates activation of the AMPK pathway. Thus, phosphorylation of AMPK Thr^172 and ACC Ser^79 will be shown through Western blotting. […]"}, "THP-1 macrophages": {"tested_on": "THP-1 macrophages", "assay": "Bio-Plex Pro human 17-plex cytokine/chemokine panel in THP-1 macrophages exposed to CDDO-EA and LPS", "type": "cell-based", "procedure": "THP-1 monocytes were plated in 24-well plate at 15×10^4 cells/0.5 ml/well in growth medium plus 100 ng/ml PMA into each well and cultured at 37° C. with 5% CO2 incubator for 48 h for differentiation to macrophages. […] Supernatants were collected and stored at −80° C. until analysis. Cytokines and chemokines were measured and quantified using a Bio-Plex Pro human cytokines group I, 17-plex ELISA Kit (Bio-Rad) according to the manufacturer's instructions."}, "TNF-α": {"tested_on": "TNF-α", "assay": "RT-PCR of PA-induced TNF-α gene expression in L6-GLUT4myc myotubes", "type": "cell-based, rat", "settings": "CDDO-EA 500 nM 1 h then PA 400 μM 6 h", "procedure": "L6-GLUT4myc myotubes were pretreated with CDDO-EA (500 nM, 1 h) and treated PA (400 μM, 6 h). TNF-α and MCP-1 gene expression were measured by RT-PCR. Data are represented as +SEM *P<0.05 vs. control, ^#P<0.05 vs. control. * P<0.05 vs. LPS, $P<0.05 vs. PA. (One-Way ANOVA)."}, "MCP-1": {"tested_on": "MCP-1", "assay": "LPS-induced MCP-1 ELISA in RAW264.7 macrophages (CDDO-EA batches)", "type": "cell-based, mouse", "settings": "RAW264.7, 500 nM 1 hour then 100 ng/ml LPS 6 hr", "procedure": "Macrophages were pre-treated with 500 nM CDDO-EA #1 or 500 nM CDDO-EA #2, for 1 hour. The microphages were then stimulated with 100 ng/ml of lipopolysaccharide (LPS) for 6 hr. Supernatants were collected from each culture. An enzyme linked immunoassay (ELISA) was performed to detect levels of the pro-inflammatory protein, monocyte chemotactic protein-1 (MCP-1). The macrophages were also treated with LPS alone or with CDDO-EA alone. A control (no treatment) group was also included in the study.\nThe second batch of CDDO-EA was tested for its biological property of anti-inflammatory activity. As with the first batch of CDDO-EA, this was tested by using the mouse macrophage cell line RAW264.7. RAW264.7 macrophages were pre-treated with 500 nM CDDO-EA for 1 hour then stimulated with 100 ng/ml of lipopolysaccharide (LPS) for 6 hr. Supernatants were collected, and an enzyme linked immunoassay (ELISA) was performed to detect the pro-inflammatory protein, monocyte chemotactic protein-1 (MCP-1). The macrophages were also treated with LPS alone or with CDDO-EA alone. A control (no treatment) group was also included in the study. […] This suppression of MCP-1 production by the second batch CDDO-EA is similar to that observed for the first batch of CDDO-EA. (See FIG. 21)."}, "[1]": {"settings": "500 nM CDDO-EA for 1 hr then 100 ng/ml LPS for 6 hr"}},
  "note": "“Also recorded” adds a separate entry of the source.",
  "data": [
    {"smiles": "CCNC(=O)[C@]12CCC(C)(C)C[C@H]1C1C(=O)C=C3[C@@]4(C)C=C(C#N)C(=O)C(C)(C)[C@@H]4CC[C@@]3(C)[C@]1(C)CC2", "note": "(stereo partly drawn) [CDDO-EA, (4aS,6aR,6bS,8aR,12aS,14bS)-11-cyano-N-ethyl-2,2,6a,6b,9,9,12a-heptamethyl-10,14-dioxo-1,3,4,5,6,6a,6b, 7,8,8a,9,10,12a, 14,14a, 14b-hexadecahydropicene-4a (2H)-carboxamide]", "values": [
      {"measurement": "GLUT4 translocation to the cell surface (colorimetry assay)", "setting": "GLUT4", "result": "induce GLUT4 translocation to the cell surface"},
      {"measurement": "LPS-induced IL-1β, IL-6 and MCP-1 production", "setting": "THP-1 macrophages; 500 nM CDDO-EA 1 hour then 100 ng/ml LPS 6 hours", "result": "primarily inhibited LPS-induced IL-1B, IL-6 and MCP-1 production; also recorded: blocks LPS induced IL-1β, IL-6, and MCP-1 secretion"},
      {"measurement": "IFN-γ", "setting": "THP-1 macrophages; 500 nM CDDO-EA alone, no LPS", "result": "24.78 ± 20.55", "unit": "pg/mL"},
      {"measurement": "IL-1β", "setting": "THP-1 macrophages; 500 nM CDDO-EA alone, no LPS", "result": "2.19 ± 1.49", "unit": "pg/mL"},
      {"measurement": "IL-4", "setting": "THP-1 macrophages; 500 nM CDDO-EA alone, no LPS", "result": "0.21 ± 0.12", "unit": "pg/mL"},
      {"measurement": "IL-6", "setting": "THP-1 macrophages; 500 nM CDDO-EA alone, no LPS", "result": "0.12 ± 0.02", "unit": "pg/mL"},
      {"measurement": "IL-8", "setting": "THP-1 macrophages; 500 nM CDDO-EA alone, no LPS", "result": "6339.67 ± 1535.18", "unit": "pg/mL"},
      {"measurement": "IL-17", "setting": "THP-1 macrophages; 500 nM CDDO-EA alone, no LPS", "result": "22.72 ± 9.47", "unit": "pg/mL"},
      {"measurement": "MCP-1", "setting": "THP-1 macrophages; 500 nM CDDO-EA alone, no LPS", "result": "2.11 ± 1.35", "unit": "pg/mL"},
      {"measurement": "MIP-1β", "setting": "THP-1 macrophages; 500 nM CDDO-EA alone, no LPS", "result": "3763.83 ± 1229.25", "unit": "pg/mL"},
      {"measurement": "TNF-α", "setting": "THP-1 macrophages; 500 nM CDDO-EA alone, no LPS", "result": "128.33 ± 38.63", "unit": "pg/mL"},
      {"measurement": "G-CSF", "setting": "THP-1 macrophages; [1]", "result": "10.72 ± 4.71", "unit": "pg/mL"},
      {"measurement": "IFN-γ", "setting": "THP-1 macrophages; [1]", "result": "114.38 ± 5.43", "unit": "pg/mL"},
      {"measurement": "IL-1β", "setting": "THP-1 macrophages; [1]", "result": "64.65 ± 17.12", "unit": "pg/mL"},
      {"measurement": "IL-2", "setting": "THP-1 macrophages; [1]", "result": "4.09 ± 1.51", "unit": "pg/mL"},
      {"measurement": "IL-4", "setting": "THP-1 macrophages; [1]", "result": "1.55 ± 0.18", "unit": "pg/mL"},
      {"measurement": "IL-6", "setting": "THP-1 macrophages; [1]", "result": "12.67 ± 5.50", "unit": "pg/mL"},
      {"measurement": "IL-8", "setting": "THP-1 macrophages; [1]", "result": "9691.33 ± 1268.42", "unit": "pg/mL"},
      {"measurement": "IL-12", "setting": "THP-1 macrophages; [1]", "result": "2.00 ± 1.00", "unit": "pg/mL"},
      {"measurement": "IL-17", "setting": "THP-1 macrophages; [1]", "result": "40.16 ± 8.13", "unit": "pg/mL"},
      {"measurement": "MCP-1", "setting": "THP-1 macrophages; [1]", "result": "11.05 ± 1.65", "unit": "pg/mL"},
      {"measurement": "MIP-1β", "setting": "THP-1 macrophages; [1]", "result": "11212.50 ± 877.01", "unit": "pg/mL"},
      {"measurement": "TNF-α", "setting": "THP-1 macrophages; [1]", "result": "8237.33 ± 1137.80", "unit": "pg/mL"},
      {"measurement": "PA-induced TNF-α gene expression", "setting": "TNF-α", "result": "inhibits PA-induced NF-κB activation and MCP-1 and TNF-α gene expression; also recorded: blocks TNF-α and MCP-1 gene expression"},
      {"measurement": "LPS-induced production of MCP-1", "setting": "MCP-1", "result": "significantly suppresses the LPS-induced production"}
    ]}
  ]
}
